Laboratory results taken from US20250206732A1, “COMPOUNDS AND METHODS FOR THE TARGETED DEGRADATION OF KRAS” (Arvinas Operations, Inc., priority 2022, published 2025).

Key:
[1] = target: T1, SW1573 HiBiT-KRASG12C (Homo sapiens, UniProt P01116, G12C); assay: HiBiT degradation assay (G12C), SW1573 HiBiT-KRASG12C cells; type: cell-based; details: 24 hours treatment, HiBiT luminescence;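 also: Letter grades: C is 1000 to 3000 nM and D is above 3000 nM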
T1 construct: expressed in transfected cells
Procedure, shortened: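 SW1573 cells expressing N-terminal HiBiT-KRASG12C (clone E6) treated 24 h at 37 °C with 10 μM to 508 pM compound in 0.5% DMSO, triplicate. HiBiT lytic luminescence normalized to DMSO, 4-parameter fit gives DC50 and Dmax; points with ≥50% alamar blue viability loss excluded.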

[2] = target: T2, AsPC-1 HiBiT-KRASG12D (Homo sapiens, UniProt P01116, G12D); assay: HiBiT degradation assay (G12D), AsPC-1 HiBiT-KRASG12D cells; type: cell-based; details: AsPC-1 HiBiT-KRASG12D cells, 24 hours treatment, HiBiT luminescence
T2 construct: insert the HiBiT tag onto the N-terminus of one or more of the endogenous KRAS alleles; endogenous in cells; host or cells: AsPC-1 (ATCC CRL-1682), CRISPR-Cas9 knock-in clone, one tagged allele
Procedure, shortened: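 Endogenous KRASG12D levels were measured via an N-terminal HiBiT tag knocked into AsPC-1 cells. Cells received compound titrations for 24 hours, and HiBiT luminescence was detected after a 45-minute lytic reagent incubation at room temperature.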

T1 sequence (P01116 1-188 isoform P01116-2 G12C): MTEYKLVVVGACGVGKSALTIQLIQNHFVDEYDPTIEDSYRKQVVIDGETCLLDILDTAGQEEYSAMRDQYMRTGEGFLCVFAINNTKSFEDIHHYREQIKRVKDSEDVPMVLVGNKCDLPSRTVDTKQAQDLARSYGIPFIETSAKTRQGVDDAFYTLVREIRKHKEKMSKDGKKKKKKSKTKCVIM
T2 sequence (P01116 1-188 isoform P01116-2 G12D): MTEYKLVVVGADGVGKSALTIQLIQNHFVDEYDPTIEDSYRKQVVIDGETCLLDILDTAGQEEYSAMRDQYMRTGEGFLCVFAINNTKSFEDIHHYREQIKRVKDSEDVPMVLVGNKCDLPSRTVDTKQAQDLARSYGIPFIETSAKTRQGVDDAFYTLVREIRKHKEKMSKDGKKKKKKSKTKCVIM

DC50 [1]: > 3 µM
DC50 [2]: > 3 µM
Compound: Cc1ncsc1-c1ccc([C@H](C)NC(=O)[C@@H]2C[C@@H](O)CN2C(=O)[C@@H](c2cc(OCC3CCN(CCOc4nc(N5CC6CCC(C5)N6)c5cnc(-c6c(OC(F)(F)F)ccc7[nH]ncc67)c(F)c5n4)CC3)no2)C(C)C)cc1 [Compound 47, (2S,4R)-1-[(2R)-2-{3-[(1-{2-[(4-{3,8-diazabicyclo[3.2.1]octan-3-yl}-8-fluoro-7-[5-(trifluoromethoxy)-1H-indazol-4-yl]pyrido[4,3-d]pyrimidin-2-yl)oxy]ethyl}piperidin-4-yl)methoxy]-1,2-oxazol-5-yl}-3-methylbutanoyl]-4-hydroxy-N-[(1S)-1-[4-(4-methyl-1,3-thiazol-5-yl)phenyl]ethyl]pyrrolidine-2-carboxamide]
